This note sets out measurements from patent publication US12637427B2, “ALDH-2 inhibitor compounds and methods of use” (Amygdala Neurosciences, Inc., priority 2022, dated 2026).

In one data set the target is T1, recombinant human ALDH-2 (Homo sapiens, UniProt P05091).
T1 sequence (P05091 18-517): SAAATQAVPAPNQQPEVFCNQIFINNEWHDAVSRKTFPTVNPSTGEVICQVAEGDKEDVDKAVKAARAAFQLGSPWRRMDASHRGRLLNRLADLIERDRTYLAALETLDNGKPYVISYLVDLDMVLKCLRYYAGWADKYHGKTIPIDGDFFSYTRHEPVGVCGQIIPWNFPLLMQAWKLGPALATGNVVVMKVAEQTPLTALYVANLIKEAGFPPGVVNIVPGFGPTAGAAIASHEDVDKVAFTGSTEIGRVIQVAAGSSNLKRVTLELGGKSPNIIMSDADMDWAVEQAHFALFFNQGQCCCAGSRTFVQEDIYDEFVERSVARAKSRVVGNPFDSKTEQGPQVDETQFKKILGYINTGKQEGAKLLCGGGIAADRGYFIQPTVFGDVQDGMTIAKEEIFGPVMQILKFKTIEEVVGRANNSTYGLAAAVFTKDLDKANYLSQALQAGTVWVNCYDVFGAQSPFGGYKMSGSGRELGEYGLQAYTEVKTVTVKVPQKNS
Nature of the data set: ALDH-2 inhibition assay. The class given is biochemical. As to conditions: 60 min pre-incubation; 10 μM = highest concentration tested; read-out: Enzymatic Assays IC50 ALDH2.

For the next data set, the target named is T2, recombinant human ALDH-3 (Homo sapiens, UniProt P30838).
T2 sequence (P30838 1-453): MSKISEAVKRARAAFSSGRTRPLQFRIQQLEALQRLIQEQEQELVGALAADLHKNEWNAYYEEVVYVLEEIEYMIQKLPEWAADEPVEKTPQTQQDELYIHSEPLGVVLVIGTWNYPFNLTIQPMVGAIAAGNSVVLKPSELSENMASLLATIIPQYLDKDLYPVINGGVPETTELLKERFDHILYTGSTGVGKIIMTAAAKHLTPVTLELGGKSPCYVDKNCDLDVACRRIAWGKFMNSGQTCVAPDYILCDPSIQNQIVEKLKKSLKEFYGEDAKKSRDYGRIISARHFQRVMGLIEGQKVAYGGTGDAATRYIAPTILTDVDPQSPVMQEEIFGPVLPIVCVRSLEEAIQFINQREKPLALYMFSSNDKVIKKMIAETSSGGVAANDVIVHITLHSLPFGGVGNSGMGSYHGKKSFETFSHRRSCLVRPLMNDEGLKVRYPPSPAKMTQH
Put plainly: ALDH-3 inhibition assay. The class given is biochemical. The following applies: 60 min pre-incubation; 10 μM = highest concentration tested; read-out: Enzymatic Assays IC50 ALDH-3.

The target in another data set is T3, MAO-B (Homo sapiens, UniProt P27338).
T3 sequence (P27338 1-520): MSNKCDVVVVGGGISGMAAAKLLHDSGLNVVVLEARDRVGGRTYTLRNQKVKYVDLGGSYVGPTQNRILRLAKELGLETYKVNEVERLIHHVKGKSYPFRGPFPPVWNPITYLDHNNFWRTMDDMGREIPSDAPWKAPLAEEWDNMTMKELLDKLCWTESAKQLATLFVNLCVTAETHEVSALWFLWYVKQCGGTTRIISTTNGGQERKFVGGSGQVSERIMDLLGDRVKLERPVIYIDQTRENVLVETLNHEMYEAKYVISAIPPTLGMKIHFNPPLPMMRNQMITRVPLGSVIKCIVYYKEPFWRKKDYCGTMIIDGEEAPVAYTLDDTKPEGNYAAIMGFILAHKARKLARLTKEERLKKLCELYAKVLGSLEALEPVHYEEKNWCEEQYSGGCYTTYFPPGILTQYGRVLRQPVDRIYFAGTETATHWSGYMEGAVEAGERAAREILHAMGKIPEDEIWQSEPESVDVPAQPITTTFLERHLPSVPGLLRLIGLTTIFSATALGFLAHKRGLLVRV
Nature of the data set: MAO-B inhibition assay. The class given is biochemical. As to conditions: 20 min pre-incubation; 10 μM = highest concentration tested; read-out: Enzymatic Assays IC50 MAO-B. How it is done:
D. MAO-A and MAO-B inhibition assays: MAO assays included luminogenic MAO substrate, reaction buffers, Luciferin Detection, and a reconstitution buffer with esterase. The MAO reaction mixture used in the assay included microsome contained MAO-A (2 μg) or MAO-B (10 μg), 160 μM substrate for MAO-A or 16 μM substrate for MAO-B, MAO-A buffer (100 mM Hepes buffer, pH 7.5, 5% glycerol) or MAO-B buffer (100 mM Hepes, pH 7.5, 5% glycerol, 10% dimethyl sulfoxide) in a final volume of 30 μL. After 20 minutes of pre-incubation of the MAO-A or MAO-B enzyme with the test ALDH-2 inhibitor compound, the reaction was initiated by adding enzyme substrate and the […] reaction was allowed to proceed for 60 minutes. Reconstituted Luciferin Detection Reagent (30 μL) was then added is added to simultaneously stop the MAO reaction and convert the methyl ester derivative to luciferin and produce light. The amount of light produced is directly proportional to the activity of MAO. The mixtures were further incubated for 20 minutes and activity of the enzyme was determined using Perkin-Elmer Envision Reader.

The subject of another data set is HepaRG spheroids. Nature of the data set: HepaRG 3D spheroid assay. The class given is cell-based. The following applies: for Ratio MEC to ALDH2: HepaRG spheroid MEC divided by ALDH-2 IC50; for HepaRG 3D Spheroid MEC: minimum effective concentration crossing vehicle control threshold of cell health marker, 100 μM = highest concentration tested. From the text: See e.g., Walker et al., “The evolution of strategies to minimise the risk of human drug-induced liver injury (DILI) in drug discovery and development,” (2020) Archives of Toxicology, Vol. 94: 2559-2585, which is hereby incorporated by reference herein in its entirety. […] In applying the HepaRG spheroid assay analysis to determining the hepatoxic liability of ALDH-2 inhibitor compounds, consideration is made of the binding to plasma protein and the limitations to CNS penetration due to the blood-brain barrier.
E. HepaRG® 3D spheroid assay: The HepaRG 3D spheroid assay is described in Walker et al., “The evolution of strategies to minimise the risk of human drug-induced liver injury (DILI) in drug discovery and development,” (2020) Archives of Toxicology, Vol. 94: 2559-2585. Briefly, HepaRG® cells were seeded into ultra-low adhesion 96-well black walled clear bottomed spheroid microplates. […] At the end of the incubation period, the spheroids were loaded with the relevant dye/antibody for each cell health marker (spheroid count, spheroid size, DNA structure, mitochondrial mass, mitochondrial membrane potential, oxidative stress, glutathione content, and cellular ATP). The plates were then scanned using an automated fluorescent cellular imager, ArrayScan® (Thermo Scientific Cellomics).

Experimental for recombinant human ALDH-2: A. ALDH-2 inhibition assay: The ALDH-2 reaction mixture used in the assay contained 125 μM formaldehyde, 75 μM NAD+, 20 mM NaCl, 10 mM MgCl2, and 20 nM recombinant human ALDH-2 in 50 mM Hepes buffer, pH 7.5 in a final volume of 10 μL using 384-well Corning 3820 plates. After 60 min of pre-incubation of the test ALDH-2 inhibitor compound with ALDH-2, the reaction was started by adding NAD+ and formaldehyde and the assay reaction mixture was allowed to proceed for 60 minutes. Activity of the ALDH-2 enzyme was determined by monitoring NADH formation using Perkin-Elmer Envision Reader with excitation and emission wavelengths set at 340 and 460 nm, respectively.
Experimental for recombinant human ALDH-3: ALDH-3 inhibition assay: The ALDH-3 reaction mixture used in the assay contained 200 μM benzaldehyde, 2.5 mM NAD+, 20 mM NaCl, 10 mM MgCl2, and 10 nM recombinant human ALDH-3 in 50 mM Hepes buffer, pH 7.5 in a final volume of 10 μL using 384-well Corning 3820 plates. After 60 min of pre-incubation of the test ALDH-2 inhibitor compound with ALDH-3, the reaction was started by adding NAD+ and benzaldehyde and the assay reaction mixture was allowed to proceed for 60 minutes. Activity of the ALDH-3 enzyme was determined by monitoring NADH formation using Perkin-Elmer Envision Reader with excitation and emission wavelengths set at 340 and 460 nm, respectively.

For the compound `Cc1cccc(Cl)c1C(=O)NCc1ccc(-c2cccc(=O)[nH]2)cc1` [(1a), 2-Chloro-6-methyl-N-(4-(6-oxo-1,6-dihydropyridin-2-yl)benzyl)benzamide], the IC50 (commonly the point on the concentration scale where inhibition reaches its midpoint) at recombinant human ALDH-2 is 0.078 µM; on recombinant human ALDH-3 it was more than 10 µM; on MAO-B, more than 10 µM. The “Ratio MEC to ALDH2” value in the data set on HepaRG spheroids is 133. In addition, the “HepaRG 3D Spheroid MEC” value with HepaRG spheroids stood at 10.4 µM.
On to `O=C(NCc1ccc(-c2cccc(=O)[nH]2)cc1)c1ccccc1Cl` [(1b), 2-Chloro-N-(4-(6-oxo-1,6-dihydropyridin-2-yl)benzyl)benzamide], for which the figures for the IC50 on recombinant human ALDH-2, on recombinant human ALDH-3 and on MAO-B were 0.137 µM, more than 10 µM and more than 10 µM, respectively. For the same compound, the “Ratio MEC to ALDH2” value in the data set with HepaRG spheroids is reported as more than 730. Further, the “HepaRG 3D Spheroid MEC” value in the data set with HepaRG spheroids is reported as “No Effect”.
Take `Cc1nccc(Cl)c1C(=O)NCc1ccc(-c2cccc(=O)[nH]2)cc1` [(1c), 4-Chloro-2-methyl-N-(4-(6-oxo-1,6-dihydropyridin-2-yl)benzyl)nicotinamide]: the IC50 was 0.128 µM at recombinant human ALDH-2, more than 10 µM at recombinant human ALDH-3 and more than 10 µM on MAO-B. For the same compound, the “Ratio MEC to ALDH2” value in the data set on HepaRG spheroids worked out at 90. The “HepaRG 3D Spheroid MEC” value in the data set on HepaRG spheroids was 11.5 µM.
In the case of `Cc1nccc(Br)c1C(=O)NCc1ccc(-c2[nH]c(=O)ccc2F)cc1` [(1g), 4-Bromo-N-(4-(3-fluoro-6-oxo-1,6-dihydropyridin-2-yl)benzyl)-2-methylnicotinamide], the IC50 on recombinant human ALDH-2 was 0.028 µM; at recombinant human ALDH-3, more than 10 µM; at MAO-B, more than 10 µM. Also, the “Ratio MEC to ALDH2” value with HepaRG spheroids is 1668. The “HepaRG 3D Spheroid MEC” value with HepaRG spheroids was determined as 46.7 µM.
`Cc1cccc(Cl)c1C(=O)NCc1ccc(-c2cccc(=O)[nH]2)nc1` [(1k), 2-Chloro-6-methyl-N-((6′-oxo-1′,6′-dihydro-[2,2′-bipyridin]-5-yl)methyl)benzamide]: the half-inhibitory concentration (IC50) was 0.01 µM on recombinant human ALDH-2, more than 10 µM on recombinant human ALDH-3 and more than 10 µM at MAO-B. For the same compound, in the data set with HepaRG spheroids, the “Ratio MEC to ALDH2” value was determined as 2100. Besides, the “HepaRG 3D Spheroid MEC” value in the data set with HepaRG spheroids was 21.0 µM.
`O=C(NCc1ccc(-c2cccc(=O)[nH]2)nc1)c1ccccc1Cl` [(1l), 2-chloro-N-((6′-oxo-1′,6′-dihydro-[2,2′-bipyridin]-5-yl)methyl)benzamide]: the figures for the IC50 on recombinant human ALDH-2, at recombinant human ALDH-3 and at MAO-B were 0.118 µM, more than 10 µM and more than 10 µM, respectively. The “Ratio MEC to ALDH2” value with HepaRG spheroids was 50. Besides, the “HepaRG 3D Spheroid MEC” value in the data set with HepaRG spheroids was determined as 5.95 µM.
